Experimental data from patent publication US20070053869A1, “Formulation and method for enhancement of gastrointestinal absorption of pharmaceutical agents” (priority 2005, published 2007).
Where two headings read alike, the source gives them in different places.

Tests used:
P-gp = P-gp (Homo sapiens, UniProt P08183); experiment: mitoxantrone accumulation in P-gp MDCK-II cells
Excerpt: Moreover, to investigate the inhibitory effect of excipients on P-gp, we also performed an intracellular accumulation study for 15 excipients using P-gp MDCK-II cells. Mitoxantrone was again used as the substrate.

ABCG2 [1] = target: T1, ABCG2 (Homo sapiens, UniProt Q9UNQ0); experiment: [3H]-mitoxantrone accumulation in ABCG2-transduced MDCK-II cells (BCRP MDCK-II)
T1 sequence (Q9UNQ0 1-655): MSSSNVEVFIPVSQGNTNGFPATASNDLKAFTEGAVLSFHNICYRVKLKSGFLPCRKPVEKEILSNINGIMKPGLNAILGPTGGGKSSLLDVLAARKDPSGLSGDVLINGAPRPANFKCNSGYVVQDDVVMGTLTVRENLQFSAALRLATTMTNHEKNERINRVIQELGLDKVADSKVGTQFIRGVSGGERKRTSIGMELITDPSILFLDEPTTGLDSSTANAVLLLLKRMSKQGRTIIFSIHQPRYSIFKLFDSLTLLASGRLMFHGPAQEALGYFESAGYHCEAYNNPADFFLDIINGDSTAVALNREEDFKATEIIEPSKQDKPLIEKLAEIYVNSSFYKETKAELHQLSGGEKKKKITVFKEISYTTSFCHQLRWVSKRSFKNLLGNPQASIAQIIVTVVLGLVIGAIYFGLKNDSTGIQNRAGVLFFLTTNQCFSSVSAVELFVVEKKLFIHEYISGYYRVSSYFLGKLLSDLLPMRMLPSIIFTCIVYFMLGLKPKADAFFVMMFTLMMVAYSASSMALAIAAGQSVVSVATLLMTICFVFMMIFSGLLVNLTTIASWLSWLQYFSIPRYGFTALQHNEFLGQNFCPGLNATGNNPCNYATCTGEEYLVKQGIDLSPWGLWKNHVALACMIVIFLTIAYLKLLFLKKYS
Protocol: Methods: For constructing MDCK-II cells expressing human ABCG2 or green fluorescent protein (GFP), MDCK-II cells were infected with recombinant adenoviruses containing human ABCG2 or GFP cDNA at 48 h prior to the experiments. ABCG2 or GFP-transduced cells were preincubated in prewarmed transport buffer for 15 min. Subsequently, [^3H]-mitoxantrone (MTX) was added in transport buffer to apical compartments. Accumulation of radiolabeled substrates was allowed for 2 h at 37° C. with or without an appropriate concentration of pharmaceutical excipients, 20 μM of GF120918 or 5 μM of PSC833. The reactions were arrested by washing cells with ice-cold transport buffer. Cells were solubilized and then the lysates were transferred to a liquid scintillation counter for measurement of radioactivity.
To abolish the influence of endogenous P-gp, PSC833 (P-gp inhibitor) was added during the incubation for 2 h, except that in the samples treated with GF120918 (a shared ABCG2 and P-gp inhibitor) no PSC833 was added.
The inhibitory effect of excipients on ABCG2 was further characterized in an intracellular accumulation study. MDCK-II cells overexpressing ABCG2 (BCRP MDCK-II) and, as controls, MDCK-II cells overexpressing green fluorescence protein (GFP) (GFP MDCK-II) were prepared. Mitoxantrone was used as the substrate. Intracellular mitoxantrone accumulation in the presence or absence of excipients was determined.
To discover the excipients that can inhibit ABCG2, we performed an intracellular accumulation study using BCRP MDCK-II and GFP MDCK-II cells in the absence or presence of excipients. Mitoxantrone was used as the substrate. To abolish the effect of endogenous P-gp, this experiment was performed in the presence of PSC833. […] All of the excipients were used below their cmc, because above their cmc, excipients form micelles that can interact with the substrate, and as a consequence the effective concentration of mitoxantrone in the experimental medium can decrease.

GFP MDCK-II cells = experiment: [3H]-mitoxantrone accumulation in GFP-transduced MDCK-II control cells; format: cell-based
ABCG2 [2] = target: T1, ABCG2; experiment: [3H]-estrone-3-sulfate (E1S) uptake into ABCG2-expressing membrane vesicles from HEK293 cells
Protocol: (§6) Measurement of the uptake of [^3H]-estrone-3-sulfate (E1S) was carried out for 11 pharmaceutical excipients at or near their reported critical micelle concentrations using ABCG2-expressing membrane vesicles.
(§7) Eleven of the pharmaceutical excipients of Table 2 were examined for effect on ABCG2 function at their cmc. The inhibitory mechanism of ABCG2 inhibition by pharmaceutical excipients was also investigated. […] The uptake of E1S into these membrane vesicles was examined in the presence and absence of the first eleven excipients of Table 2.
(§8) The IC50 values for these excipients, and their mode of inhibitory action for the function of ABCG2 were evaluated and determined.
(§9) Km and Vmax were calculated for ABCG2 inhibition by excipients at a concentration near the IC50 values. Then, their values were compared to those obtained in the absence of excipient. […] Results are the means±SE (n=3).

[3] = ratio of topotecan concentration in blood to plasma; settings: mouse, blood and plasma; mice; read-out: RB, ratio of topotecan concentration in blood to plasma
[4] = mouse, in vivo
Protocol: (§1) Topotecan (1 mg/kg) was administered orally to wild-type and female bcrp1 KO mice. We then determined the plasma concentration of topotecan as a function of time (FIG. 9).
(§2) We then determined the plasma concentration of topotecan as a function of time.
(§3) Topotecan was also administered intravenously, for comparison. […] We then determined the plasma concentration of topotecan as a function of time.
(§4) The dose of topotecan was 1000 μg/kg of body weight.
(§5) The product of Fa and Fg is presystemic bioavailability for drugs not further metabolized in the liver. […] We determined Fa*Fg using Eh=CLTOT,BLOOD/Qh where Qh is 5.4 (L/h/kg). The fold change relative to wild type control is also presented.

[5] = mouse, in vivo; remark: listed apart in the source
Protocol: as §1, §2, §3, §4, §5

[6] = reported in literature; cited from earlier work
[7] = critical micelle concentration by surface tension in a transport buffer; format: physicochemical
Excerpt: The critical micelle concentration can be measured by a surface tension method,-e.g. using a Tensiometer, or other methods known in the art. Any suitable method known in the art can be used to measure the cmc. In a particular embodiment ASTM D 971 REV A is used.
Therefore, we determined the cmc of the 11 excipients used above, and others, by measuring surface tension in a transport buffer. […] The concentration beyond which there was no further change in surface tension was taken as the cmc.

ABCG2 [8] = target: T1, ABCG2
Protocol: as §6, §7, §8, §9

GFP/MDCK II cells = experiment: intracellular ATP level, luciferin/luciferase assay, GFP/MDCK II cells; format: cell-based; settings: sodium azide 100 mM; P85 copolymer 20 μM; polysorbate 20 250 μM; polyoxyl 35 castor oil 50 μM; sorbitan monolaurate 100 μM; lauryl PEG ether 100 μM; n=3

Chain of P-gp (P08183 whole entry): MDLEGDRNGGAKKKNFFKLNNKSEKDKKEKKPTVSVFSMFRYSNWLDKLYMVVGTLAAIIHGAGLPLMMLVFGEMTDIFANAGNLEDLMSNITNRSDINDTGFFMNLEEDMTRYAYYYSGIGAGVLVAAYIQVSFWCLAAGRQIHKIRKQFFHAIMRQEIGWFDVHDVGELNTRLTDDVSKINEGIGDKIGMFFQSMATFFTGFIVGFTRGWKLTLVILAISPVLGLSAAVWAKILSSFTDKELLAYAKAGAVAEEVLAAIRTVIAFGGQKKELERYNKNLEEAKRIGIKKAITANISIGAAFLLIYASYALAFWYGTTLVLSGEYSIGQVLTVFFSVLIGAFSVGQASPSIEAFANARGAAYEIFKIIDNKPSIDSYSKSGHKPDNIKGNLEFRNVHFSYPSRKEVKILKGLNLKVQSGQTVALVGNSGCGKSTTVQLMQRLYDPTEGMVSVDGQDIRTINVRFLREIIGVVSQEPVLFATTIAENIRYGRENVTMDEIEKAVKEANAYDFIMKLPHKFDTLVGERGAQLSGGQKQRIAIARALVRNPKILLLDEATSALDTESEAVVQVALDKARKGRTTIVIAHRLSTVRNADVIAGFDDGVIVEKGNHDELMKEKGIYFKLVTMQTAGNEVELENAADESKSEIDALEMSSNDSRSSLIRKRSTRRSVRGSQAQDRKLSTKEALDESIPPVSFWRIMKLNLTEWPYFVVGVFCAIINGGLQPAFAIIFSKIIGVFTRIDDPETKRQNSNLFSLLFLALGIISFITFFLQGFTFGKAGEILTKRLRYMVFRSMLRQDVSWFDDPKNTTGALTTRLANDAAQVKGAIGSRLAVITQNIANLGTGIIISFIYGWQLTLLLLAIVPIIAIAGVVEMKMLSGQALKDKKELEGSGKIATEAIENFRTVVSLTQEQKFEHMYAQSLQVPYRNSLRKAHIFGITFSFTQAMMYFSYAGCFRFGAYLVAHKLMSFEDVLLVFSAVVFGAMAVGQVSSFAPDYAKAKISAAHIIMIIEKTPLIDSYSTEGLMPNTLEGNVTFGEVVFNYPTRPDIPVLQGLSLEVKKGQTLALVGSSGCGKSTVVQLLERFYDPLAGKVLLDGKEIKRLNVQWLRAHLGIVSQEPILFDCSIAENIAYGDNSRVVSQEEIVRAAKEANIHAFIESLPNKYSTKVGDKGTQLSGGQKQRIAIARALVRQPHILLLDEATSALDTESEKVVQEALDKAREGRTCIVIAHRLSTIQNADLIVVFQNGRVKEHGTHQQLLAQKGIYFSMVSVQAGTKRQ

Compound: Polyoxyethylenesorbitan monooleate
- mitoxantrone accumulation in P-gp MDCK-II cells (in words) (P-gp): increased
- inhibition of ABCG2 in the intact cell assay (ABCG2 [1]): did not inhibit ABCG2

Compound: Polyoxyethylenesorbitan monolaurate
- mitoxantrone accumulation in P-gp MDCK-II cells (in words) (P-gp): increased

Compound: COc1cc2c(cc1OC)CN(CCc1ccc(NC(=O)c3cccc4c(=O)c5cccc(OC)c5[nH]c34)cc1)CC2 [GF120918]
- accumulation of MTX in GFP-transduced cells (in words) (GFP MDCK-II cells; Example 1, 20 μM GF120918, 2 h): no consistent effect
- initial accumulation of mitoxantrone, BCRP versus GFP MDCK-II cells (ABCG2 [1]): no significant difference
- accumulation of MTX in ABCG2-transduced cells compared to control (ABCG2 [1]; human, 2 h, 20 μM): 1.4 times

Compound: CCCCCCCCCCCCOCCOCCOCCOCCO [Polyoxyl 4 lauryl ether, Lauryl polyethylene glycol ether]
- IC50 (ABCG2 [2]): 77.5 ± 4.1 µM

Compound: Polyoxyethyleneglyceroltriricinoleate 35 [Polyoxyl 35 castor oil]
- mitoxantrone accumulation in P-gp MDCK-II cells (in words) (P-gp): increased

Compound: CC[C@@]1(O)C(=O)OCc2c1cc1n(c2=O)Cc2cc3c(CN(C)C)c(O)ccc3nc2-1 [topotecan]
- blood plasma ratio [3]: 1.2
- Eh of topotecan [4]: 0.22
- F of topotecan [4]: 0.27
- Fa × Fg of topotecan [4]: 0.35
- Fh of topotecan [4]: 0.78
- Fold Change of Fa × Fg relative to wild type control [4]: 1.8
- CLtot,plasma of topotecan ([4]; po, 1000 ug/kg): 86.7 mL/min/kg
- Eh of topotecan [5]: 0.37
- F of topotecan [5]: 0.12
- Fa × Fg of topotecan [5]: 0.19
- Fh of topotecan [5]: 0.63
- CLtot,plasma of topotecan ([5]; po, 1000 ug/kg): 333 mL/min/kg

Compound: CCCCCCCCCCCCO[C@@H]1O[C@H](CO)[C@@H](O[C@H]2O[C@H](CO)[C@@H](O)[C@H](O)[C@H]2O)[C@H](O)[C@H]1O [LM, n-dodecyl-β-D-maltopyranoside]
- Reference cmc [6]: 170 µM
- Measured cmc [7]: 688 µM
- effect on ABCG2-mediated E1S uptake into vesicles (in words) (ABCG2 [8]): less or no effect

Compound: Sorbitan monolaurate
- Reference cmc [6]: 100 µM
- mitoxantrone accumulation in P-gp MDCK-II cells (in words) (P-gp; Example 7): increased
- intracellular ATP, GFP/MDCK II (GFP/MDCK II cells): 132.8 ± 3.6 nmol/mg protein
- mitoxantrone accumulation in BCRP MDCK-II cells (in words) (ABCG2 [1]; Example 7, excipients below their cmc, in the presence of PSC833): significantly increased

Compound: Polyoxyethyleneglyceroltrihydroxystearate [Polyoxyl 40 hydrogenated castor oil]
- mitoxantrone accumulation in P-gp MDCK-II cells (in words) (P-gp): increased

Compound: Sorbitan monooleate
- Reference cmc [6]: 100 µM

Compound: Sorbitan monopalmitate
- Reference cmc [6]: 200 µM

Compound: C/C=C/C[C@@H](C)C(=O)[C@H]1C(=O)N[C@@H](C(C)C)C(=O)N(C)CC(=O)N(C)[C@@H](CC(C)C)C(=O)N[C@@H](C(C)C)C(=O)N(C)[C@@H](CC(C)C)C(=O)N[C@@H](C)C(=O)N[C@H](C)C(=O)N(C)[C@@H](CC(C)C)C(=O)N(C)[C@@H](CC(C)C)C(=O)N(C)[C@@H](C(C)C)C(=O)N1C [PSC833]
- mitoxantrone accumulation in P-gp MDCK-II (P-gp; 1 hr (printed 'I hr')): markedly increased
- mitoxantrone accumulation in P-gp MDCK-II cells (in words) (P-gp; Example 7): markedly reversed
- initial accumulation of mitoxantrone in P-gp MDCK-II cells (P-gp; initial 5 min): significantly increased
- mitoxantrone accumulation in GFP MDCK-II cells (in words) (GFP MDCK-II cells; Example 7, P-gp study, endogenous P-gp): reversed
- initial accumulation of mitoxantrone in GFP MDCK-II cells (GFP MDCK-II cells; initial time course): slightly increased
